Measurements: paper PMC7485941 (Clinical and Translational Science, 2020)
Entries after “also recorded” stand apart in the source; their conditions may differ.

Assays:
healthy subjects [1] = test: 12-lead ECG by time-point and categorical outlier analysis in the TQT study; type: in vivo, human
healthy subjects [2] = test: Concentration-QTc; type: in vivo, human; settings: for Predicted (90% CI) ΔΔQTcF at geometric mean peak concentration: PK/QTc population
healthy subjects [3] = test: Safety and tolerability; type: in vivo, human; settings: for overall percentage of TEAEs: part B
hERG channels = test: In vitro hERG ion channel assay; type: cell-based, human; settings: 160 mg twice daily
[4] = cited from earlier work
[5] = Plasma pharmacokinetics in the TQT study; settings: for Cmax: Geometric mean Cmax (90% CI), PK/QTc population
QTc interval = settings: therapeutic and supratherapeutic concentrations; cited from earlier work

## COc1c(N2C[C@@H]3CCCN[C@@H]3C2)c(F)cc2c(=O)c(C(=O)O)cn(C3CC3)c12 [Moxifloxacin, moxifloxacin, reference compound]
Healthy subjects [1]; moxifloxacin 400 mg, at 2.5 hours postdose
  peak effect, mean ΔΔQTcF: 12.9 ms
Healthy subjects [1]; moxifloxacin 400 mg, between 1 and 4 hours postdose
  mean ΔΔQTcF: above 10 msec
Healthy subjects [2]; moxifloxacin
  estimated population slope of the C-QTc relationship: 0.005 msec per ng/mL
  intercept of the C-QTc relationship: 3.1 ms
Healthy subjects [3]; moxifloxacin 400 mg
  overall percentage of TEAEs: 22.2%

## C=CC(=O)N1CCC([C@@H]2CCNc3c(C(N)=O)c(-c4ccc(Oc5ccccc5)cc4)nn32)CC1 [Zanubrutinib]
Healthy subjects [1]; all postdose time points, 160 and 480 mg
  Mean placebo-corrected change from baseline heart rate (ΔΔHR), magnitude (±): < 5 bpm
Healthy subjects [1]; all time points after dosing with zanubrutinib
  Mean ΔΔPR: < 5 ms
Healthy subjects [1]; any postdose time point, both zanubrutinib doses
  upper bound of the 90% CI of ΔΔQTcF: ≤ 1.2 ms
Healthy subjects [1]; categorical outlier analysis
  participants with HR outlier values: no participant with HR outlier values
Healthy subjects [1]; categorical outlier analysis, zanubrutinib 160 and 480 mg
  participants with outlier QTcF values (> 450 msec): No participants had outlier QTcF values; also recorded: no participant had outlier values
Healthy subjects [1]; categorical outlier analysis, zanubrutinib groups
  participants with outlier ΔQTcF values (> 30 msec): No participant had outlier ΔQTcF values
Healthy subjects [1]; single 160-mg or 480-mg dose
  effect on QTc interval: did not prolong the QTc interval
Healthy subjects [2]; 160 mg, n = 27
  Predicted (90% CI) ΔΔQTcF at geometric mean peak concentration: −3.16 (−4.51 to −1.81) msec
Healthy subjects [2]; 480 mg, n = 28
  Predicted (90% CI) ΔΔQTcF at geometric mean peak concentration: −3.38 (−4.86 to −1.89) msec
hERG channels
  exposure margin, hERG IC50 over clinical steady-state unbound Cmax: ~ 217 fold
Healthy subjects [3]; part A, 480 mg single dose, n = 6
  SAEs or grade 3 or higher AEs related to administration: no SAEs or grade 3 or higher AEs
Healthy subjects [3]; zanubrutinib 160 mg
  overall percentage of TEAEs: 10.0%
Healthy subjects [3]; zanubrutinib 480 mg
  overall percentage of TEAEs: 13.3%
[4]; 160 mg, patients with B-cell malignancy
  mean Cmax: 346 ng/mL
[4]; oral administration
  mean terminal elimination half-life (t ½): 2 to 4 h
[4]; recommended phase III dose of 160 mg twice daily, no reference given
  clinical steady-state unbound Cmax: 42 nM
[5]; concentration range included in C-QTc modeling
  highest observed plasma concentration in the TQT study: ≈ 800 ng/mL
[5]; human, in vivo, 160 mg, n = 27
  Cmax: 215 ng/mL
[5]; human, in vivo, 480 mg, n = 28
  Cmax: 401 ng/mL
[5]; human, in vivo, 480 mg, mean t ½, 480-mg dose, range over part A and part B
  half-life: 8.1 to 11 h
[5]; human, in vivo, 480 mg, median Tmax, range over part A and part B, 160 and 480 mg, postdose
  Tmax: 1.5 to 2.8 h

## CC#CC(=O)N1CCC[C@H]1c1nc(-c2ccc(C(=O)Nc3ccccn3)cc2)c2c(N)nccn12 [acalabrutinib]
QTc interval
  effect on QTc interval: not to prolong the QTc interval
